Data as given in patent US5334593A, “Anxiolytic drugs” (Yamasa Shoyu Kabushiki Kaisha, priority 1990, dated 1994).

What was measured:
ICR mice = assay: Acute toxicity (intraperitoneal administration); format: in vivo, mouse (ICR); conditions: one week
Experimental: 1-Amino-5-bromouracil (ABU) was suspended in physiological saline containing 0.5% carboxymethyl cellulose (CMC). ABU was administered intraperitoneally to 8 ICR mice in a dose of 500 mg/kg, and their lethality was observed over a period of one week.
Further, 1-amino-5-chlorouracil (ACU) was administered intraperitoneally to 10 male ICR mice in a dose of 357 mg/kg, and their lethality was observed over a period of one week.

male ICR mice [1] = assay: Muscle relaxant activity (rotated wire screen test); conditions: muscle relaxant ED50 / minimum effective dose for anti-conflict activity
Experimental: (§1) The muscle relaxant activities of the test compounds, 1-amino-5-bromouracil(ABU), 1-amino--5-chlorouracil (ACU) and diazepam (DZP), were determined in accordance with the method of L. L. Coughenour et al. [see Pharmacol. Biochem. & Behav., 6, 351-353 (1977)].
(§2) Male ICR mice were placed on a 13 cm×13 cm No. 4 wire screen, and the screen was then rotated by 180 degrees. Those mice which were able to return to the screen within one minute were referred to "successful" mice. The suspension of each test compound prepared in the same manner as in Test Example 1 was administered orally to the mice. The mice were then subjected to the above test. The dose of the test compound at which 50% of the mice successfully returned to the screen was determined as ED50 (A).
(§3) Furthermore, the validity of each of the test compounds as an anxiolytic drug was expressed as A/B value.

in vivo = conditions: mouse, in vivo, po
Experimental: as §1, §2, §3

[2] = Acute toxicity (oral administration); conditions: mouse, in vivo, male ICR mice, Litchfield-Wilcoxon method
Experimental: The acute toxicity (LD50 value) per oral administration was determined by the following method.
The test compound (1-amino-5-bromouracil (ABU) or 1-amino-5-chlorouracil (ACU) was suspended in distilled water containing 0.5% carboxymethyl cellulose (CMC). ABU or ACU was administered orally to male ICR mice (1 group: 10 mice) in a dose of 1000-2800 mg/kg or 500-1400 mg/kg, and the LD50 values were determined according to the Litchfield-Wilcoxon method. The results are shown in Table 2.

male ICR mice [3] = assay: Anti-conflict activity (Vogel type conflict test); format: in vivo, mouse (ICR); conditions: for number of water-drinking: 10 minutes
Experimental: The method is described below.
Male ICR mice (6 weeks old) were deprived of water for one day before the test. The mice were then individually placed in the test box, and given water ad libitum for 10 minutes. Thereafter, they were placed back in their home cages, given water ad libitum overnight, and again deprived of water for two days. The mice thus treated were used for the measurement.
ABU, the test compound, was suspended in physiological saline containing 0.5% CMC, and the suspension was administered intraperitoneally to the above mice. .On the other hand, as a positive control compound, DZP was administered in the same manner. Fifteen minutes after the administration,the mice were placed in the test box, and allowed to freely drink one count of water (one drop: approximately 40 ul ). Thereafter, a 50 V electric foot shock was given from the grid floor to the mice every time they drunk one count of water. Under such conditions, the number of water-drinking was counted over a period of 10 minutes. The number of water-drinking performed by a group of mice to which the test compound was administered was compared with that of water-drinking performed by a group of mice to which a vehicle (physiological saline containing 0.5% CMC and no test compound) was administered.
The significant difference was ascertained by the Mann-Whitney's U-test.

male Wistar rats = assay: Anti-conflict activity (Geller type conflict test); format: in vivo, rat (Wistar); conditions: for number of lever pressing during the alarm periods / number of lever pressing during the safety periods: one hour, vs control; for minimal effective dose: Rattus norvegicus, oral, from results of Test Example 1, read-out: Minimum Effective Dose for Anti-Conflict Activity [B]
Experimental: The activities of the test compounds were evaluated by the Geller type conflict test which is frequently employed as a preclinical evaluation method of an anxiolytic drug [see Psychophamacologia, 1, 482-492 (1960 )]. The method is described below.
1-Amino--5--chlorouracil (ACU) , 1-amino-5-bromouracil (ABU) and 1-amino-5-fluorouracil (AFU) were used as the test compounds. These compounds were respectively suspended in distilled water containing 0 . 5% carboxymethyl cellulose (CMC) to obtain suspensions suitable for oral administration. In addition, diazepam (DZP) serving as a positive control compound was also prepared as a suspension suitable for oral administration in the same manner.
A skinner box (manufactured by OHARA & Co. , Ltd. ) used for the test was equipped with a lever, a light and a buzzer, and its floor was a grid made of stainless steel. When the lever was pressed, pellets (food) were supplied from a feeder, and, if necessary, an electric shock was given from the floor.
Male Wistar rats were deprived of food during the night to restrain an increase in the body weight, and a training of the animals was started. After the number of lever pressing performed by the rats reached the predetermined level by following a reinforcement schedule in which food pellets were supplied once every ten times of lever pressing (FR-10) , two periods, that is, a 7-minute safety period and a 3-minute alarm period were alternately incorporated in the schedule - During the alarm period, the rats were signaled by the light and buzzer, and further by an electric shock given from the floor every time they were supplied with food pellets. Those rats which were trained to press the lever 19 times or less during the alarm period were used for the measurement. Immediately after a suspension of a test compound prepared in the above-described manner was administered orally to the rats, they were placed in the skinner box, and the numbers of lever pressing were counted over a period of one hour. The numbers thus obtained were compared with those obtained by the control wherein distilled water containing 0.5% CMC and no test compound was orally administered to the rats and the number of lever pressing was counted for one hour. The significant difference was ascertained by the Wilcoxoh's signed rank test. The results are shown in FIG. 1A, FIG. 1B, FIG. 1C, FIG. 2A and FIG. 2B.
To the rats used for the above test, no drugs were administered for one week, and then they were repeatedly used for the same test.
Further, the minimum effective dose (B) for anti-conflict activity of each of the above-described test compounds was determined on the basis of the results obtained in Test Example 1.

[4] = cited from earlier work

Row | SMILES | Validity [A/B] (male ICR mice [1]) | ED50 (in vivo) [mg/kg] | LD50 [2] [mg/kg] | number of lever pressing during the alarm periods (male Wistar rats; 10 mg/kg oral) | number of lever pressing during the alarm periods (male Wistar rats; 30 mg/kg oral) | number of lever pressing during the safety periods (male Wistar rats; 30 mg/kg oral) | number of lever pressing during the safety periods (male Wistar rats; 50 mg/kg oral) | minimal effective dose (male Wistar rats) [mg/kg] | number of lever pressing during the alarm periods (male Wistar rats; 20 mg/kg oral) | number of lever pressing during the safety periods (male Wistar rats; 20 mg/kg oral) | also measured
1 | Nn1cc(Br)c(=O)[nH]c1=O [ABU, 1-amino-5-bromouracil] | 7.4 | 74.1 | 1920 | significantly increased | significantly increased | did not significantly change | did not significantly change | 10 | – | – | lethality (ICR mice; 500 mg/kg i.p., 8 ICR mice): no death was observed; sensitivity to an electric shock (male ICR mice [3]; 20 mg/kg i.p.): no decrease in the sensitivity to an electric shock was noted; number of water-drinking (male ICR mice [3]; ABU 5, 10, 20 and 50 mg/kg i.p., significant only at 20 mg/kg): a significant increase in the number of water-drinking was noted only at the dose of 20 mg/kg; number of lever pressing during the safety periods (male Wistar rats; 10 mg/kg oral): did not significantly change; number of lever pressing during the alarm periods (male Wistar rats; 50 mg/kg oral): significantly increased
2 | Nn1cc(Cl)c(=O)[nH]c1=O [ACU, 1-Amino--5--chlorouracil] | 2.3 | 46 | 971 | – | significantly increased | did not significantly change | – | 20 | significantly increased | did not significantly change | lethality (ICR mice; 357 mg/kg i.p., 10 male ICR mice): no death was observed
3 | Nn1cc(F)c(=O)[nH]c1=O [AFU, 1-amino-5-fluorouracil] | – | – | – | – | – | – | – | – | significantly increased | did not significantly change | –
4 | CN1C(=O)CN=C(c2ccccc2)c2cc(Cl)ccc21 [DZP, diazepam, reference compound] | 1.8 | 8.8 | – | significantly increased | – | – | significantly decreased | 5 | significantly increased | significantly decreased | behaviors of the mice when receiving an electric shock (male ICR mice [3]; 2 mg/kg i.p.): lack of both vocalization and escape behavior; sensitivity of the mice to an electric shock (male ICR mice [3]; 2 mg/kg i.p.): decreased; number of water-drinking (male ICR mice [3]; 2 mg/kg i.p.): significantly increased; number of lever pressing during the alarm periods (male Wistar rats; 5 mg/kg oral): significantly increased
5 | CCC(C)n1c(=O)[nH]c(C)c(Br)c1=O (stereo not shown) [bromacil] | – | – | – | – | – | – | – | – | – | – | minimum effective dose for single administration ([4]; oral, single administration): 100 mg/kg; anxiolytic activity ([4]; orally administered): low anxiolytic activity
